Assays:
Format in all cases: in vivo
rice = test: Post-emergence stage, crop damage; details: 720 g a.i./ha, 3 weeks after application
From the text: (§1) The activity level criteria for plant damage (i.e., growth control rate) are as follows:
(§2) The above growth control rates are fresh weight control rates.
(§3) Monocotyledonous and dicotyledonous weed seeds (Descurainia sophia, Capsella bursa-pastoris, Abutilon theophrasti, Galium aparine, Stellaria media, Lithospermum arvense, Rorippa indica, Alopecurus aequalis, Alopecurus japonicus, Eleusine indica, Beckmannia syzigachne, Sclerochloa dura, Phleum paniculatum, Veronica didyma, Bromus japonicus, Aegilops tauschii, Phalaris arundinacea, Amaranthus retroflexus, Chenopodiaceae, Commelina communis, Sonchus arvensis, Convolvulus arvensis, Cirsium setosum, Solanumnigrum, Acalypha australis, Digitaria sanguinalis, Echinochloa crusgalli, Setaria viridis, Setaria glauca, Leptochloa chinensis, Monochoria vaginalis, Sagittaria trifolia, Scirpus juncoides, Cyperus rotundus, Cyperus iria, Cyperus difformis, Fimbristylis, Portulaca oleracea, Xanthium sibiricum, Pharbitis nil, Conyza Canadensis, etc.) and major crop seeds (wheat, corn, rice, soybean, cotton, oilseed rape, millet, sorghum, potato, sesame, ricinus, etc.) were placed in plastic pots filled with soil, then covered with 0.5-2 cm of soil, allowed to grow in a good greenhouse environment. Two weeks after sowing, the test plants were treated in the 2-3 leaf stage. The tested compounds of the present invention were respectively dissolved in acetone, then added with Tween 80 and 1.5 liter/ha of emulsifiable concentrate of methyl oleate as synergist, diluted with a certain amount of water to obtain a solution of a certain concentration, and sprayed by a spray tower onto the plants. After the application, the plants were cultured for 3 weeks in the greenhouse, and then the experimental results of the weeding were recorded. The doses of the used compounds were 45, 90, 180, 360, 720 g a.i./ha, and the averages were obtained from three replicates.

wheat = test: Post-emergence stage, crop damage; details: 720 g a.i./ha, 3 weeks after application
From the text: as §1, §2, §3

Galium aparine = test: Activity test of the compositions, post-emergence treatment by foliage spray; details: foliage (F), A 16 g a.i./mu
Experimental: The desired active ingredient B was purchased from a reagent company or synthesized by a known method. The technical materials were all dissolved in acetone and diluted with an aqueous solution containing 0.10% emulsifier Tween-80 which were to be used immediately after dilution.
Weeds were cultivated by a pot culture method. […] Weed seeds with plump and uniform grains were selected, soaked in lukewarm water at 25° C. for 6 hours, and germinated in a 28° C. biochemical incubator (in darkness). The weed seeds that had just germinated were evenly placed on the surface of the soil and then covered with 0.5-1 cm soil according to the sizes of seeds.
Each treatment was repeated 4 times. Four pots with 20 weed seeds per pot were treated each time.
The agents were used for only once in total in the experiment. In the stage of 1.5-2 leaves, the weeds were thinned out to maintain 10 weeds per pot. Ten weeds were kept in each treatment, then continued to be cultured until Echinochloa crus-galli var. zelayensis reached the stage of 2-3 leaves, Cirsium setosum reached the stage of 5-6 leaves, Galium aparine reached the stage of 3-4 whorl leaves, Amaranthus retroflexus reached the stage of 3-5 leaves, Echinochloa crusgalli, Lolium multiflorum and Digitaria sanguinalis reached the stage of 3 leaves with one leaf not fully expanding for further treatment.
The well-cultured test materials were evenly placed on a platform with an area of 0.5 m^2, and solution of agents was sprayed on the stems and leaves thereof by the 3WP-2000-type walking spray tower at a dosage of 450 kg/ha and at a spray pressure of 0.3 MPa. After all the solution was sprayed, the valve was closed. After 30 seconds, the door of the spray tower was opened, and the nutritional bowl was taken out. Then the valve was opened, and the spray tube was cleaned by spraying 50 ml of water. After the treatment, the weeds were routinely cultured in a greenhouse.
A method for investigating absolute numbers was employed. Whole seedlings of survival weeds were cut off with a blade along the soil surface, and the fresh weight of the weeds was weighed with an analytical balance. For dead weeds, the fresh weight thereof was zero.
The investigation was performed 21 days after the treatment for only once in total.

CC1(C)CON(Cc2ccc(Cl)cc2Br)C1=O [Compound 1]
plant damage level (growth control rate) on crop, post-emergence stage (rice): 1 (Level 1: growth control rate is greater than or equal to 5% and less than 20%) | plant damage level (growth control rate) on crop, post-emergence stage (wheat): 1 (Level 1: growth control rate is greater than or equal to 5% and less than 20%) | Control effect (%) of A applied alone (A) (Galium aparine): 55.4%
